Several values for one entry are separate records, joined by “and”; a condition that tells them apart may be missing. Equal entries are not always repeated. Where two headings read alike, the source gives them in different places.
Assays:
Assay in all cases: biochemical
Type in all cases: biochemical
[1] = target: 363 human kinases (including Aurora A/B/C) (Homo sapiens, UniProt P11362); settings: for remaining activity at 0.1 µM / remaining activity at 0.5 µM: read-out: % Enzyme Activity (relative to DMSO controls)
363 human kinases (including Aurora A/B/C) (Homo sapiens, UniProt P11362), sequence (P11362 22-822): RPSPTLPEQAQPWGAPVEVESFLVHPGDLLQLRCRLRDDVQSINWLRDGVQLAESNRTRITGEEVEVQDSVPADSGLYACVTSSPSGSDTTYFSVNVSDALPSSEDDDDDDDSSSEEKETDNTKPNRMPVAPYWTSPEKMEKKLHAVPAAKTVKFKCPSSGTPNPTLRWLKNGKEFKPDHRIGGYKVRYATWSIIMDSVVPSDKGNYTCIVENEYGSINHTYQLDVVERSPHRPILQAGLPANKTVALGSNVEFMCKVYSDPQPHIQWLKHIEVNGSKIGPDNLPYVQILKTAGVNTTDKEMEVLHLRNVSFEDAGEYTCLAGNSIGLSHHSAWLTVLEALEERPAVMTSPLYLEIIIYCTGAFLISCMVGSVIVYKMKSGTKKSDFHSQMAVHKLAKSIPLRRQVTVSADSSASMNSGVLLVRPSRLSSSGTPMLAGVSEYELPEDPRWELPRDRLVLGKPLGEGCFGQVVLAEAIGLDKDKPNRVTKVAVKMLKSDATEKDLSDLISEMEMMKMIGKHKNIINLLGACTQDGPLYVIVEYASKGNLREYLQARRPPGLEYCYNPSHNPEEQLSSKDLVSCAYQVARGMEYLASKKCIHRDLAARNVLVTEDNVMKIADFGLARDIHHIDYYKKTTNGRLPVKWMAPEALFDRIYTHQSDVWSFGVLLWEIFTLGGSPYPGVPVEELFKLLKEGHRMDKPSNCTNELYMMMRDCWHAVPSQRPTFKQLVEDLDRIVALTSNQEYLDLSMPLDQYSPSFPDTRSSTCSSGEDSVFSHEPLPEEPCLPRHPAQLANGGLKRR
Source text: (§1) However, the Aurora A/B selectivity ratios derived from our in vitro and in vivo data can be compared to prioritize inhibitors.

[2] = target: 363 human kinases (including Aurora A/B/C) (Homo sapiens, UniProt P23458); settings: JAK1; for remaining activity at 0.1 µM: 100 nM; for remaining activity at 0.1 µM / remaining activity at 0.5 µM: read-out: % Enzyme Activity (relative to DMSO controls)
363 human kinases (including Aurora A/B/C) (Homo sapiens, UniProt P23458), sequence (P23458 whole entry): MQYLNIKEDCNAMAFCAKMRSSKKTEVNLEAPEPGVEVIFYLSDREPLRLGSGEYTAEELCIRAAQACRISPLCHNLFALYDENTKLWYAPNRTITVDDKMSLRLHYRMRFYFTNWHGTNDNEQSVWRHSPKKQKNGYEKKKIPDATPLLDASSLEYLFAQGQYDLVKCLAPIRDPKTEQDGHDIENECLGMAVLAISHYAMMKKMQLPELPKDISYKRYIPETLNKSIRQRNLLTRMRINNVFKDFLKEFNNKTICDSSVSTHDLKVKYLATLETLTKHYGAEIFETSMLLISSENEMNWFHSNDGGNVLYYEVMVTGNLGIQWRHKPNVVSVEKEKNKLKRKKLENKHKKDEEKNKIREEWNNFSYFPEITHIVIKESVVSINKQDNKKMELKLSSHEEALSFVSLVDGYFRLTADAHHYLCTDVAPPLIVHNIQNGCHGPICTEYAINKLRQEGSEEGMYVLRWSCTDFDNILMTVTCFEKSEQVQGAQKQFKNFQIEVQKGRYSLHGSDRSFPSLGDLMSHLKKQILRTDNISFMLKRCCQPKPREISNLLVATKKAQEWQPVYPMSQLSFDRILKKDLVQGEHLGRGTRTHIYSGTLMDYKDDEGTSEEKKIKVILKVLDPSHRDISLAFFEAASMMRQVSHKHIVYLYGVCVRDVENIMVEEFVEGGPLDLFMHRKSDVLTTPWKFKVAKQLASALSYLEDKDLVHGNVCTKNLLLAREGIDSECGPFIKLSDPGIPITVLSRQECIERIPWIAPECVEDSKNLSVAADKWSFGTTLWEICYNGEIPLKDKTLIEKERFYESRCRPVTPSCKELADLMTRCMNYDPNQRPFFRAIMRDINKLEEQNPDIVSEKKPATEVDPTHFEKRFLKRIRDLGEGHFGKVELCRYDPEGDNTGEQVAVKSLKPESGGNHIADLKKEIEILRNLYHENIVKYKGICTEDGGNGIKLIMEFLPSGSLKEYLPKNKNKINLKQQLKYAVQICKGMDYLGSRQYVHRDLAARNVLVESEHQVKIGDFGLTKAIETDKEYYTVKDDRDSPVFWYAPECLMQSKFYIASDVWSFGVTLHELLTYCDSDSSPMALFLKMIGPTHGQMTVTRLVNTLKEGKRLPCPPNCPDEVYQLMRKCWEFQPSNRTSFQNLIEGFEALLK
Source text: as §1

[3] = target: T1, 363 human kinases (including Aurora A/B/C) (Homo sapiens, UniProt P25098); settings: GRK2; for remaining activity at 0.1 µM: 100 nM; for remaining activity at 0.1 µM / remaining activity at 0.5 µM: read-out: % Enzyme Activity (relative to DMSO controls)
T1 sequence (P25098 1-689): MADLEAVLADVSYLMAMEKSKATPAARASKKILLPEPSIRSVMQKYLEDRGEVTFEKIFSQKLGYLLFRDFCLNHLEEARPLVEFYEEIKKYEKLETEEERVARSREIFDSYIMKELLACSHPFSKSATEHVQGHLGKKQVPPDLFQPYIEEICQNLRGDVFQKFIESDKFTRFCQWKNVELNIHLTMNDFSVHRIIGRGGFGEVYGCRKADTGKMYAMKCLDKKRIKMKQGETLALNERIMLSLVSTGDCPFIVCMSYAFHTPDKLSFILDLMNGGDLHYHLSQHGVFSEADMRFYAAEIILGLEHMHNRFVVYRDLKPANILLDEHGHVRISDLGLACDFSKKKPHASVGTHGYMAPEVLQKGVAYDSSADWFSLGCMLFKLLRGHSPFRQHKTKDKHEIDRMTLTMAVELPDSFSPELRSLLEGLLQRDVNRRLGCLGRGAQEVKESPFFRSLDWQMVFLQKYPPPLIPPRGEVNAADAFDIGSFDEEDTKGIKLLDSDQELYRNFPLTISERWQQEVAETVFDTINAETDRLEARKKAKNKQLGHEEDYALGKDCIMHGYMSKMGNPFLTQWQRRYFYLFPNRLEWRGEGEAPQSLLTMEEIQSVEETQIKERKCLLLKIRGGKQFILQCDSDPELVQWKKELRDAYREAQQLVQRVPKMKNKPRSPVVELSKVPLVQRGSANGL
Source text: as §1

[4] = target: 363 human kinases (including Aurora A/B/C) (Homo sapiens, UniProt P35916); settings: for remaining activity at 0.1 µM / remaining activity at 0.5 µM: read-out: % Enzyme Activity (relative to DMSO controls)
363 human kinases (including Aurora A/B/C) (Homo sapiens, UniProt P35916), sequence (P35916 25-1363): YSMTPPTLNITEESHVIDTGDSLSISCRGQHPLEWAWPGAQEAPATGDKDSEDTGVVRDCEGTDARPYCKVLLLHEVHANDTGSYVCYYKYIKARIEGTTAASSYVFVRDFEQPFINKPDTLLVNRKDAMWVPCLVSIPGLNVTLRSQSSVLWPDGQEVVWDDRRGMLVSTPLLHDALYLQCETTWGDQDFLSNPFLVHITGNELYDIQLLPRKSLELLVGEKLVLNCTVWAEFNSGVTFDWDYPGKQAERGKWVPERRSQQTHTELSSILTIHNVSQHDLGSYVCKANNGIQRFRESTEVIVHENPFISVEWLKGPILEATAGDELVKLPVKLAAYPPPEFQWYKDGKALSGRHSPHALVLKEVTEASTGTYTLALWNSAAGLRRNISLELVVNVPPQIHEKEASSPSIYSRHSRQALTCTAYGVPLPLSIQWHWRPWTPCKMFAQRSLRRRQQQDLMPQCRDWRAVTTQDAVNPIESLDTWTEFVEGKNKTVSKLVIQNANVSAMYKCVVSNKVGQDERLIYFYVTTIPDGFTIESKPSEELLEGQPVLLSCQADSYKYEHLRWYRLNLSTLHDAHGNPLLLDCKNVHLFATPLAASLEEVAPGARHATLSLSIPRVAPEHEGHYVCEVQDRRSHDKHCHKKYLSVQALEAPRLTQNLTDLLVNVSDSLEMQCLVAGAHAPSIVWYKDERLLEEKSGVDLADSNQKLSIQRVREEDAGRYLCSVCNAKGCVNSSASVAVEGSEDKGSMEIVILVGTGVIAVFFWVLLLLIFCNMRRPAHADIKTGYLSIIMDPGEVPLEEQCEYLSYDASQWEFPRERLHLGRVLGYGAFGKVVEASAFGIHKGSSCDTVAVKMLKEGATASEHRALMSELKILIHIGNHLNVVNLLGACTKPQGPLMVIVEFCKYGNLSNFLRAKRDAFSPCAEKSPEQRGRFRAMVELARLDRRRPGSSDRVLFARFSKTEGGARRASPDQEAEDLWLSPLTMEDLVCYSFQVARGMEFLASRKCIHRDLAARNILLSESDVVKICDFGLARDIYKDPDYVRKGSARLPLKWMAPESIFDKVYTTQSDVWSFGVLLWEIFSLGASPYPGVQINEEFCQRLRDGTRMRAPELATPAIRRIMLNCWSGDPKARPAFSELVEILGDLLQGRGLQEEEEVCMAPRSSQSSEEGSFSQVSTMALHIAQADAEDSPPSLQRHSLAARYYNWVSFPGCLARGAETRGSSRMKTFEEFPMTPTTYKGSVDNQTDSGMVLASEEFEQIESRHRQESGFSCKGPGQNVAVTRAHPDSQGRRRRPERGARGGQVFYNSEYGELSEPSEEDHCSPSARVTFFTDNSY
Source text: as §1

[5] = target: 363 human kinases (including Aurora A/B/C) (Homo sapiens, UniProt Q13555); settings: CAMK2g, [ATP] 2.5 µM; for remaining activity at 0.1 µM: 100 nM; for remaining activity at 0.1 µM / remaining activity at 0.5 µM: read-out: % Enzyme Activity (relative to DMSO controls)
363 human kinases (including Aurora A/B/C) (Homo sapiens, UniProt Q13555), sequence (Q13555 whole entry): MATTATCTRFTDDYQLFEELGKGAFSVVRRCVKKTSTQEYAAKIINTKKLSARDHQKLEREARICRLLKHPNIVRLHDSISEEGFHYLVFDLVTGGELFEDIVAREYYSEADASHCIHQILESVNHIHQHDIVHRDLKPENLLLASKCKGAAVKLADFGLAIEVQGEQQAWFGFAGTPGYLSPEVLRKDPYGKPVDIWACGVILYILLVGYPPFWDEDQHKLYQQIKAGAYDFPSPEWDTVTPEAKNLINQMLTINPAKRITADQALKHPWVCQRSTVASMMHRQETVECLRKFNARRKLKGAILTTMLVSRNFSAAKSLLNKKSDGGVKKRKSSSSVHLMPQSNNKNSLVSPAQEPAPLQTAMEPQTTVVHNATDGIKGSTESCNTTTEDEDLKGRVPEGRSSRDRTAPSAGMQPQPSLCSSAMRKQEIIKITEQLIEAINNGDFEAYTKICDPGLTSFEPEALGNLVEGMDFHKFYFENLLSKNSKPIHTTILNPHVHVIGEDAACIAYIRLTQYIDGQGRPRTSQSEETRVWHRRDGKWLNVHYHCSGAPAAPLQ
Source text: as §1

[6] = target: 363 human kinases (including Aurora A/B/C) (Homo sapiens, UniProt Q7KZI7); settings: MARK2/PAR-1Ba; for remaining activity at 0.1 µM: 100 nM; for remaining activity at 0.1 µM / remaining activity at 0.5 µM: read-out: % Enzyme Activity (relative to DMSO controls)
363 human kinases (including Aurora A/B/C) (Homo sapiens, UniProt Q7KZI7), sequence (Q7KZI7 whole entry): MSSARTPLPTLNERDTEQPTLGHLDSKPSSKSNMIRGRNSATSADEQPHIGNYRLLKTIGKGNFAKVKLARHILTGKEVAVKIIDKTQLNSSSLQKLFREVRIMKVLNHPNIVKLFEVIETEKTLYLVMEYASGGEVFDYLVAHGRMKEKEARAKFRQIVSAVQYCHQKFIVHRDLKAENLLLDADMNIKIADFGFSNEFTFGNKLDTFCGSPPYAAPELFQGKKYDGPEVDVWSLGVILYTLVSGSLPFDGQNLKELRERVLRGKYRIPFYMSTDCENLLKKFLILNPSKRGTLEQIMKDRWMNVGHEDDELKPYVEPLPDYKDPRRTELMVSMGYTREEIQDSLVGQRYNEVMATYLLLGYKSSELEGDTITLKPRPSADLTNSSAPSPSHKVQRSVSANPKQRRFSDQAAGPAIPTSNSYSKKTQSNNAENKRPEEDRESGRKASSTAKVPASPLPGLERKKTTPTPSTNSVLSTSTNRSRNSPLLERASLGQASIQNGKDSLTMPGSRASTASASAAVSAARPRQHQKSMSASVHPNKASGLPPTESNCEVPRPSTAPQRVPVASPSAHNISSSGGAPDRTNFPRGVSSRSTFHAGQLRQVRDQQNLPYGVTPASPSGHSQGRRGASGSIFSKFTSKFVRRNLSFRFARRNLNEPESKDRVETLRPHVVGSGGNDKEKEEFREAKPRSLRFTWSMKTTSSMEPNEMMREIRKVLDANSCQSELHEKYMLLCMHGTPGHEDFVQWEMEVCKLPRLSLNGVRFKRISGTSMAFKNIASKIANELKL
Source text: as §1

[7] = target: T2, 363 human kinases (including Aurora A/B/C) (Homo sapiens, UniProt Q8IW41); settings: MAPKAPK5/PRAK; for remaining activity at 0.1 µM: 100 nM; for remaining activity at 0.1 µM / remaining activity at 0.5 µM: read-out: % Enzyme Activity (relative to DMSO controls)
T2 sequence (Q8IW41 1-473): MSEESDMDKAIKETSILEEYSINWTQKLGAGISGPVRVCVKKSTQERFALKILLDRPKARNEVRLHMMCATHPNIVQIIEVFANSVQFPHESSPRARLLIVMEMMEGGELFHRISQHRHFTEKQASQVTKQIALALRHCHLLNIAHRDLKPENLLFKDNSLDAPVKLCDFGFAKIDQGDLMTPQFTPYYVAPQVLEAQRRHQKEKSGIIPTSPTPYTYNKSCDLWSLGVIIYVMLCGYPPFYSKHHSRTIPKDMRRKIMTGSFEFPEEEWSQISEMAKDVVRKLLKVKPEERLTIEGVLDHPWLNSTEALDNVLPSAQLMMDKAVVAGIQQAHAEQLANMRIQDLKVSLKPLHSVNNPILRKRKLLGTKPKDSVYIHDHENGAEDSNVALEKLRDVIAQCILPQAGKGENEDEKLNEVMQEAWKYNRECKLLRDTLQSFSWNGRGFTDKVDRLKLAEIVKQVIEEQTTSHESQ
Source text: as §1

[8] = target: T3, 363 human kinases (including Aurora A/B/C) (Homo sapiens, UniProt Q96PF2); settings: TSSK2; for remaining activity at 0.1 µM: 100 nM; for remaining activity at 0.1 µM / remaining activity at 0.5 µM: read-out: % Enzyme Activity (relative to DMSO controls)
T3 sequence (Q96PF2 1-358): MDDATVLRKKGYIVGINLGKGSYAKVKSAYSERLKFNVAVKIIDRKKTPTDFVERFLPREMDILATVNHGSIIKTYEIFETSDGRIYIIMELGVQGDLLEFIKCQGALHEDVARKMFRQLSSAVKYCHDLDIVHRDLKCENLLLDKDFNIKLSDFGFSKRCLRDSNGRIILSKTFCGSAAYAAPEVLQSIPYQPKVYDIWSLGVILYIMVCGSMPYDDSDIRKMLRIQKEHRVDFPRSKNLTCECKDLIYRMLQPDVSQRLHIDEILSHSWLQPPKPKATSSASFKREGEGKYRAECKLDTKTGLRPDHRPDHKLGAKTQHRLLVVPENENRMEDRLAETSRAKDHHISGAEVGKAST
Source text: as §1

[9] = target: T4, 363 human kinases (including Aurora A/B/C) (Homo sapiens, UniProt Q9NR20); settings: DYRK4, [ATP] 2.5 µM; for remaining activity at 0.1 µM: 100 nM; for remaining activity at 0.1 µM / remaining activity at 0.5 µM: read-out: % Enzyme Activity (relative to DMSO controls)
T4 sequence (Q9NR20 1-520): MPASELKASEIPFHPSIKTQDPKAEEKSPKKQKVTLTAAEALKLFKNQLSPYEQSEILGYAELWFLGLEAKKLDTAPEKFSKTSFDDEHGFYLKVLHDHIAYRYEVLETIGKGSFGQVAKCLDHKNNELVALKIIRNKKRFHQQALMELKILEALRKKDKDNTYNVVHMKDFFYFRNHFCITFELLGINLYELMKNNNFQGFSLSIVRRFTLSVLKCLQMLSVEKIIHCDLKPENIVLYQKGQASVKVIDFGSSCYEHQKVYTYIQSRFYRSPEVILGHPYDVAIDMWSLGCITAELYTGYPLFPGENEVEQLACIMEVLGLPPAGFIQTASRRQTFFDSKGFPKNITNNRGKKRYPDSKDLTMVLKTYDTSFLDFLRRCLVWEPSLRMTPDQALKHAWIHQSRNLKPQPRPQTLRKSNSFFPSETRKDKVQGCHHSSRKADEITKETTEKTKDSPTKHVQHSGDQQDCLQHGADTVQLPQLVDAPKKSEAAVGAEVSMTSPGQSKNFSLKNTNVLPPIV
Source text: as §1

[10] = FLT4/VEGFR3, [ATP] 5 µM, 500 nM

In the case of `O=C(O)[C@]1(Cc2cccc(Nc3nccs3)n2)CC[C@@H](Oc2cccc(Cl)c2F)CC1` [MK-5108], the remaining activity at 0.1 µM ([1]; FGFR1, [ATP] 5 µM, 100 nM) was 61.8%, the remaining activity at 0.5 µM ([1]; FGFR1, [ATP] 5 µM, 500 nM) was 30.8% and the remaining activity at 0.1 µM [2] was 99.4%. For the same compound, the remaining activity at 0.5 µM ([2]; 500 nM) was 61.6%, the remaining activity at 0.1 µM [3] was 102% and the remaining activity at 0.5 µM ([3]; 500 nM) was 106%. For the same compound, the remaining activity at 0.1 µM ([4]; FLT4/VEGFR3, [ATP] 5 µM, 100 nM) was 26.2%, the remaining activity at 0.5 µM [4, 10] was 6.3% and the remaining activity at 0.1 µM [5] was 91.1%. For the same compound, the remaining activity at 0.5 µM ([5]; 500 nM) was 94.4%, the remaining activity at 0.1 µM [6] was 96.8% and the remaining activity at 0.5 µM ([6]; 500 nM) was 97.8%. For the same compound, the remaining activity at 0.1 µM [7] was 101%, the remaining activity at 0.5 µM ([7]; 500 nM) was 101% and the remaining activity at 0.1 µM [8] was 103%. It also gave a remaining activity at 0.5 µM ([8]; 500 nM) of 91.5%, a remaining activity at 0.1 µM [9] of 99.4% and a remaining activity at 0.5 µM ([9]; 500 nM) of 93.6%.

For `O=C(c1cccc(Cl)c1F)N1CCN(Cc2cccc(Nc3nccs3)n2)CC1` [MK-8745], the “% Enzyme Activity (relative to DMSO controls)” value ([1]; FGFR1, [ATP] 5 µM, 500 nM) was 93.82%, the remaining activity at 0.5 µM ([1]; FGFR1, [ATP] 5 µM, 500 nM) was 97.1% and the “% Enzyme Activity (relative to DMSO controls)” value ([2]; 500 nM) was 103.50%. The remaining activity at 0.5 µM ([2]; 500 nM) was 104%, the “% Enzyme Activity (relative to DMSO controls)” value ([3]; 500 nM) was 103.92% and the remaining activity at 0.5 µM ([3]; 500 nM) was 105%. The “% Enzyme Activity (relative to DMSO controls)” value [4, 10] was 87.71%, the remaining activity at 0.5 µM [4, 10] was 88.4% and the “% Enzyme Activity (relative to DMSO controls)” value ([5]; 500 nM) was 92.25%. For the same compound, the remaining activity at 0.5 µM ([5]; 500 nM) was 94.3%, the “% Enzyme Activity (relative to DMSO controls)” value ([6]; 500 nM) was 103.22% and the remaining activity at 0.5 µM ([6]; 500 nM) was 104%. For the same compound, the “% Enzyme Activity (relative to DMSO controls)” value ([7]; 500 nM) was 102.03%, the remaining activity at 0.5 µM ([7]; 500 nM) was 103% and the “% Enzyme Activity (relative to DMSO controls)” value ([8]; 500 nM) was 93.76%. For the same compound, the remaining activity at 0.5 µM ([8]; 500 nM) was 94.7%, the “% Enzyme Activity (relative to DMSO controls)” value ([9]; 500 nM) was 88.59% and the remaining activity at 0.5 µM ([9]; 500 nM) was 89.1%.

For `CCn1cc(-c2ccnc3[nH]c(-c4cccc(CN(C)C)c4)cc23)c(-c2ccc(NC(=O)N(C)C)cc2)n1` [GSK1070916], the remaining activity at 0.1 µM [1] was 60.2%, the remaining activity at 0.1 µM [2] was 95.8% and the remaining activity at 0.1 µM [3] was 101%. For the same compound, the remaining activity at 0.1 µM [4] was 60.2% and 59.9%, the remaining activity at 0.1 µM [5] was 94.5% and the remaining activity at 0.1 µM [6] was 96.9%. The remaining activity at 0.1 µM [7] was 99.4%, the remaining activity at 0.1 µM [8] was 99.9% and the remaining activity at 0.1 µM [9] was 95.3%.

— PMC4685510, “A Cell Biologist’s Field Guide to Aurora Kinase Inhibitors” (Frontiers in Oncology, 2015)
